# Test results taken from ChEMBL document CHEMBL1129949, “Correlation of antimalarial activity of artemisinin derivatives with binding affinity with ferroprotoporphyrin IX” (J Med Chem, 1997).
# Test system: Plasmodium falciparum
# Experiment: Mean of EC50 values for FM3A cells/ mean of EC50 values for Plasmodium falciparum
# Format: functional, organism-based
row,Compound,IC50 [nM]
1,"C[C@@H]1CC[C@H]2C(Cn3ccnc3)C(O)O[C@@H]3OC4(C)CC[C@@H]1[C@]32OO4 (single isomer, unassigned)",0.39
2,"C[C@@H]1CC[C@H]2C(Cn3ccnc3)C(=O)O[C@@H]3OC4(C)CC[C@@H]1[C@]32OO4 (single isomer, unassigned)",32
3,"CCOC1O[C@@H]2OC3(C)CC[C@H]4[C@H](C)CC[C@@H](C1C)[C@@]24OO3 (single isomer, unassigned)",24
4,"C[C@@H]1CC[C@H]2C(CSc3ccccc3)C(=O)O[C@@H]3OC4(C)CC[C@@H]1[C@]32OO4 (single isomer, unassigned)",20
5,C[C@@H]1CC[C@H]2[C@@H](C)C(=O)O[C@@H]3O[C@@]4(C)CC[C@@H]1[C@]32OO4 [ARTEMISININ],5
6,CC1C(OC(=O)CCC(=O)O)O[C@@H]2O[C@]3(C)CC[C@H]4[C@H](C)CC[C@@H]1[C@@]24OO3 (some centres undefined),0.62
7,"CC1C(O)O[C@@H]2OC3(C)CC[C@H]4[C@H](C)CC[C@@H]1[C@@]24OO3 (single isomer, unassigned)",1.1
8,"COC1O[C@@H]2OC3(C)CC[C@H]4[C@H](C)CC[C@@H](C1C)[C@@]24OO3 (single isomer, unassigned)",4.1
9,"C=C1C(=O)O[C@@H]2OC3(C)CC[C@H]4[C@H](C)CC[C@@H]1[C@@]24OO3 (single isomer, unassigned)",30
